Among the data in PubChem BioAssay (NCI) are GI50 and TGI values, retold here.

Values joined by “and” are separate entries in the source; they are usually repeats but may differ in a detail not shown here. Equal entries are not always repeated.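 All cell lines were grown in 96-well plates and treated with compound for 48 hours. The concentration for 50% growth inhibition is given as GI50. TGI is the concentration that stops growth completely.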

Some test systems named below: A498 renal; HOP-62 NSCLC; K-562 leukemia; M14 melanoma; MCF7 breast; MDA-MB-231 breast; OVCAR-8 ovarian; RPMI-8226 leukemia; SF-268 CNS; SK-OV-3 ovarian.
Common to all, as to assay: DTP human tumour cell line panel, 48 h

On to `O=C(O[C@H]1CN[C@H](C#Cc2cc3ncnc(Nc4ccc(Cc5ccccc5)cc4)c3s2)C1)N1CCOCC1`, for which the GI50 (as a rule, the concentration that inhibits growth by half) in the test on A498 renal is 0.768 µM; in the test with HOP-62 NSCLC, 5.15 µM; in the test with K-562 leukemia, 8.44 µM; in the test on M14 melanoma it was 6.08 µM; in the test with MCF7 breast, 5.63 µM; with MDA-MB-231 breast it was 4.56 µM. Besides, the GI50 is 5.33 µM in the test on OVCAR-8 ovarian, 6.47 µM in the test on RPMI-8226 leukemia, 3.8 µM in the test on SF-268 CNS and 0.033 µM in the test on SK-OV-3 ovarian. The TGI (in general, the concentration at which net growth stops) was 6.53 µM in the test with A498 renal; above 14.1 µM in the test on HOP-62 NSCLC; above 25 µM in the test on K-562 leukemia; 18.9 µM in the test on M14 melanoma; above 20.6 µM in the test on MCF7 breast; 14.2 µM in the test on MDA-MB-231 breast. In addition, the TGI with OVCAR-8 ovarian is above 23.4 µM; in the test with RPMI-8226 leukemia, 24.9 µM; in the test with SF-268 CNS, 10.6 µM; with SK-OV-3 ovarian, above 25 µM.

For the molecule `Cc1c(NC(=O)CCCl)c(=O)oc2c(C)c3occc(=O)c3cc12`, the TGI in the test on A498 renal was 76.2 µM; in the test with HOP-62 NSCLC, above 100 µM; in the test on K-562 leukemia it was above 100 µM; in the test on M14 melanoma, above 100 µM; with MCF7 breast, above 100 µM; in the test with OVCAR-8 ovarian it was above 100 µM. The TGI with RPMI-8226 leukemia, in the test on SF-268 CNS and in the test on SK-OV-3 ovarian was above 100 µM in each case.

`O=C1C(CN(Cc2ccccc2)Cc2ccccc2)CCCC1CN(Cc1ccccc1)Cc1ccccc1` (stereo not given): the total growth inhibition concentration (TGI) is 77.2 µM and > 100 µM with A498 renal; above 100 µM in the test on HOP-62 NSCLC; above 100 µM in the test with K-562 leukemia; 31.1 µM and > 100 µM in the test with M14 melanoma; above 100 µM in the test on MCF7 breast; above 100 µM with MDA-MB-231 breast. Also, the TGI is 43.1 µM and > 100 µM in the test with OVCAR-8 ovarian; above 100 µM in the test on RPMI-8226 leukemia; 53 µM and > 100 µM in the test on SF-268 CNS; > 77 µM and 97.5 µM with SK-OV-3 ovarian. Besides, the GI50 was 54.3 µM and > 86.3 µM in the test with K-562 leukemia; 17.2 µM and 71.7 µM in the test on M14 melanoma; 20.3 µM and > 100 µM in the test on MCF7 breast; > 100 µM and 38.3 µM in the test with MDA-MB-231 breast; 22.9 µM and > 95.5 µM in the test with OVCAR-8 ovarian; 33.3 µM and > 100 µM in the test with SF-268 CNS.

On to `O=[N+]([O-])c1ccc(Oc2cccnc2)c([N+](=O)[O-])c1`, for which the GI50 in the test with A498 renal is 18.7 µM; with HOP-62 NSCLC it was 5.95 µM; with K-562 leukemia, 3.22 µM; in the test with M14 melanoma, 2.74 µM; in the test with MCF7 breast, 3.74 µM; with MDA-MB-231 breast it was 2.9 µM. For the same molecule, the GI50 was 3.52 µM in the test on OVCAR-8 ovarian, 4.07 µM in the test with RPMI-8226 leukemia, 4.2 µM in the test with SF-268 CNS and 3.28 µM in the test with SK-OV-3 ovarian. Besides, the TGI was 43.1 µM in the test on A498 renal; 27.9 µM in the test with HOP-62 NSCLC; above 100 µM in the test on K-562 leukemia; 8.61 µM in the test with M14 melanoma; 17.6 µM in the test on MCF7 breast; 11.6 µM with MDA-MB-231 breast. Also, the TGI with OVCAR-8 ovarian was above 100 µM; with RPMI-8226 leukemia, 62.6 µM; in the test on SF-268 CNS it was 36.4 µM; in the test on SK-OV-3 ovarian, 9.73 µM.

As to `C[CH2][Sn]1([CH2]C)[O]C2C(O)OC(CO)C(O)C2[O]1` (stereo not given), the GI50 in the test on A498 renal was 18.9 µM; with HOP-62 NSCLC it was above 100 µM; in the test with K-562 leukemia it was 16.7 µM; in the test on M14 melanoma, 37.3 µM; in the test with MCF7 breast, 25.4 µM; with MDA-MB-231 breast, 14.4 µM. Further, the GI50 was above 100 µM with OVCAR-8 ovarian, 7.16 µM in the test with RPMI-8226 leukemia, 39.4 µM in the test with SF-268 CNS and above 100 µM with SK-OV-3 ovarian. Besides, the TGI is 42 µM in the test with A498 renal; above 100 µM in the test on HOP-62 NSCLC; 41.4 µM with K-562 leukemia; above 100 µM with M14 melanoma; 79.5 µM in the test with MCF7 breast; 28.6 µM with MDA-MB-231 breast. Also, the TGI was above 100 µM in the test with OVCAR-8 ovarian, 23.8 µM in the test on RPMI-8226 leukemia, above 100 µM in the test on SF-268 CNS and above 100 µM with SK-OV-3 ovarian.

Consider `CCOC(=O)CC(=O)N(c1ccc(OC)cc1)C(C(=O)OC)c1ccccc1` (stereo not given), for which the TGI in the test with HOP-62 NSCLC, in the test on K-562 leukemia, in the test on M14 melanoma, with MCF7 breast, in the test on OVCAR-8 ovarian and in the test with RPMI-8226 leukemia was above 100 µM each time. The same molecule had a TGI in the test on SF-268 CNS above 100 µM.

Turning to `NC(=O)Cc1ccccc1Oc1nccc(-c2c(-c3ccc(F)cc3)ncn2C2CCNCC2)n1`, the GI50 in the test with A498 renal, in the test with HOP-62 NSCLC, in the test on K-562 leukemia, in the test with M14 melanoma, with MCF7 breast and in the test on MDA-MB-231 breast was above 25 µM throughout. Also, the GI50 in the test with OVCAR-8 ovarian, in the test with RPMI-8226 leukemia, in the test on SF-268 CNS and in the test with SK-OV-3 ovarian was above 25 µM each time. In addition, the TGI in the test with A498 renal, in the test with HOP-62 NSCLC, in the test with K-562 leukemia, in the test on M14 melanoma, with MCF7 breast and with MDA-MB-231 breast was above 25 µM in each case. Moreover, the TGI in the test with OVCAR-8 ovarian, in the test with RPMI-8226 leukemia, with SF-268 CNS and in the test on SK-OV-3 ovarian was above 25 µM throughout.

Turning to `NC(=O)c1ncn(C2OC(CO)C(O)C2O)n1` (stereo not given), the GI50 in the test on A498 renal is above 100 µM; with HOP-62 NSCLC, above 100 µM; in the test with K-562 leukemia it was 51.9 µM; with M14 melanoma, above 100 µM; in the test on MCF7 breast, 36.4 µM; in the test on MDA-MB-231 breast it was above 100 µM. Besides, the GI50 in the test on OVCAR-8 ovarian was 45.4 µM; in the test on RPMI-8226 leukemia, 80.5 µM; with SK-OV-3 ovarian, above 100 µM. For the same molecule, the TGI in the test on A498 renal, in the test with HOP-62 NSCLC, in the test with K-562 leukemia, with M14 melanoma, with MCF7 breast and in the test with MDA-MB-231 breast was above 100 µM each time. Also, the TGI with OVCAR-8 ovarian, with RPMI-8226 leukemia and in the test with SK-OV-3 ovarian was above 100 µM in each case.
